Measurements: patent US11925622B2, “Role of novel carbazole linked 1, 2, 3- triazole analogs in alleviating methylglyoxal-mediated late diabetic vascular complications” (priority 2021, dated 2024)
Counter-ions that a name gives are not always drawn.

Tests used:
[1] = system: MGO-mediated BSA glycation; experiment: In vitro antiglycation activity, MGO-BSA glycation assay (fluorescence); format: biochemical, bovine; conditions: for IC50 / % inhibition of MGO-BSA glycation: BSA 10 mg/mL, MGO 0.1 M, 24 h, 37° C.; for IC50: read-out: IC50 antiglycation, MGO-BSA model; for % inhibition of MGO-BSA glycation: compounds at 1 mM
Procedure: In vitro antiglycation activity: The MGO-BSA assay was performed as per optimized protocol of Jahan, H. et al with slight modifications. Initially, the antiglycation activity of parent compound carbazole (1), and carbazole-linked 1,2,3 triazoles 2-16 were identified at 1 mM using MGO-BSA model. […] BSA (10 mg/mL) incubated with MGO (0.1 M) for 24 h at 37° C. using phosphate-azide buffer (0.1 mM), served as a positive control. The wells with BSA only were taken as negative control. Whereas, rutin and quercetin were used as standard antiglycation agents. After 24 h of incubation, the fluorescence of each well was measured by using microplate reader (Varioskan lux, Thermo Fisher Scientific, 319 Scientific, USA) at 355 nm excitation, and 460 nm emission.
The % inhibition of MGO-BSA-mediated by carbazole-triazole derivatives was quantified by using the following formula: […]
The IC50 of active antiglycation compounds were identified by using EZ-FIT Enzyme Kinetics Program (Perrella Scientific Inc., Amherst, USA).

[2] = system: HepG2 cell line; experiment: Cytotoxicity, MTT assay in hepatocytes; format: cell-based, human; conditions: 24 h
Procedure: (§1) Cytotoxicity analysis: The cytotoxic profile of the compounds was determined by using the MTT assay in hepatocytes (HepG2 cell line), and WST-1 assay in human monocytes (THP-1 cell line) as per the manufacturer's protocols. […] Doxorubicin treated cells were used as a positive control, while cells with culture medium served as negative control. Wells with culture medium served as a blank. Followed by the incubation, 20 μL of MTT were added in each well. […] The absorbance was measured by using 540, and 450 nm, respectively ([…] reader, Thermo Fisher, 319 Scientific, USA).

[3] = system: THP-1 cell line; experiment: Cytotoxicity, WST-1 assay in human monocytes; format: cell-based; conditions: 24 h
Procedure: as §1

[4] = system: MGO-AGEs-induced ROS in THP-1 monocytes; experiment: Anti-oxidation activity, DCFH-DA assay of MGO-AGEs-mediated ROS in monocytes; format: cell-based, human; conditions: for ROS (DCF fluorescence) in MGO-AGEs-treated monocytes: 100 μM (maximum inhibition), MGO-AGEs 50 μg/mL, 24 h
Procedure: Anti-oxidation activity: The measurement of effect of derivatives on AGEs-mediated ROS was based on the previously reported protocol of Soumyarani and colleagues with slight amendments. Initially, 1×10^6 monocytes/mL were loaded in sterile 96-well flat bottom black fluorescent plate, and pre-incubated with DCFH-DA (10 μM; Sigma-Aldrich Chemical Corporation, St. Louis, Missouri, USA) for 45 min at 37° C. Followed by the incubation, antiglycating, non-toxic carbazole-linked triazole derivatives (10, 30, 50, and 100 μM) were added to the wells for 1 h before co-treatment of cells with MGO-AGEs (50 μg/mL) for next 24 h. Next, the fluorometric measurement of converted DCFH into oxidized DCF product was carried out via spectrofluorimeter (Varioskanmicroplate reader, Thermo Fisher Scientific, USA) using 485 nm excitation and 520 nm emission wavelengths. Various controls were plated in each experiment. Wells containing culture RPMI with MGO-AGEs (50 μg/mL) and H2O2 ([…]) served as positive controls, while cells containing BSA were taken as negative control.

## Cc1cccc(C(=O)Cn2cc(Cn3c4ccccc4c4ccccc43)nn2)c1 [Compound 8, 2-(4-((9H-Carbazole-9-yl)methyl)-1H-1,2,3-triazole-1-y1)-1-(m-tolyl)ethan-1-one]
[1]
  antiglycation activity in MGO-BSA model (in words): good activity
  IC50: 130 ± 10 µM
  % inhibition of MGO-BSA glycation: 79%
[2]; 1 μM
  % Inhibition ± SD Hep-G2: 6.4 ± 2.2%
[2]; 10 μM
  % Inhibition ± SD Hep-G2: 8.7 ± 4.8%
[2]; 30 μM
  % Inhibition ± SD Hep-G2: 47.3 ± 2.2%
[2]; 50 μM
  % Inhibition ± SD Hep-G2: 54.5 ± 0.7%
[2]; 100 μM
  % Inhibition ± SD Hep-G2: 66.9 ± 1.9%
[2]; 250 μM
  % Inhibition ± SD Hep-G2: 74.1 ± 1.9%
[2]; 500 μM
  % Inhibition ± SD Hep-G2: 86.7 ± 5.8%
[3]; 1 μM
  % Inhibition ± SD THP-1: 35.5 ± 1.1%
[3]; 10 μM
  % Inhibition ± SD THP-1: 42.1 ± 0.4%
[3]; 30 μM
  % Inhibition ± SD THP-1: 43 ± 4.3%
[3]; 50 μM
  % Inhibition ± SD THP-1: 43.9 ± 0.7%
[3]; 100 μM
  % Inhibition ± SD THP-1: 46.7 ± 2.0%
[3]; 250 μM
  % Inhibition ± SD THP-1: 73.6 ± 1.9%
[3]; 500 μM
  % Inhibition ± SD THP-1: 99.5 ± 0.3%

## Cc1ccccc1C(=O)Cn1cc(Cn2c3ccccc3c3ccccc32)nn1 [Compound 7, 2-(4-((9H-Carbazole-9-yl)methyl)-1H-1,2,3-triazole-1-y1)-1-(o-tolyl)ethan-1-one]
[1]
  antiglycation activity in MGO-BSA model (in words): good activity
  IC50: 275 ± 5 µM
  % inhibition of MGO-BSA glycation: 72%
[2]; 1 μM
  % Inhibition ± SD Hep-G2: 12.3 ± 3.7%
[2]; 10 μM
  % Inhibition ± SD Hep-G2: 21.8 ± 4.7%
[2]; 30 μM
  % Inhibition ± SD Hep-G2: 21.8 ± 1.5%
[2]; 50 μM
  % Inhibition ± SD Hep-G2: 41.1 ± 3.5%
[2]; 100 μM
  % Inhibition ± SD Hep-G2: 50.3 ± 3.9%
[2]; 250 μM
  % Inhibition ± SD Hep-G2: 59.8 ± 15.5%
[2]; 500 μM
  % Inhibition ± SD Hep-G2: 78.4 ± 2.2%
[3]; 1 μM
  % Inhibition ± SD THP-1: 21 ± 8.8%
[3]; 10 μM
  % Inhibition ± SD THP-1: 27 ± 4.2%
[3]; 30 μM
  % Inhibition ± SD THP-1: 34.6 ± 6.5%
[3]; 50 μM
  % Inhibition ± SD THP-1: 32.1 ± 0.4%
[3]; 100 μM
  % Inhibition ± SD THP-1: 50.7 ± 5.3%
[3]; 250 μM
  % Inhibition ± SD THP-1: 80.8 ± 5.1%
[3]; 500 μM
  % Inhibition ± SD THP-1: 79.5 ± 5.8%

## O=C(Cn1cc(Cn2c3ccccc3c3ccccc32)nn1)c1ccccc1 [Compound 2, 2-(4-((9H-Carbazole-9-yl)methyl)-1H-1,2,3-triazole-1-y1)-1-phenylethan-1-one]
[1]
  antiglycation activity in MGO-BSA model (in words): weak potential
  IC50: 797 ± 7 µM
  % inhibition of MGO-BSA glycation: 58%
[4]; MGO-AGEs 50 μg/mL-treated THP-1 monocytes
  antioxidant activity / ROS production inhibition (in words): inactive

## c1ccc2c(c1)[nH]c1ccccc12 [carbazole]
[1]
  % inhibition of MGO-BSA glycation: 36.7%

## COc1cccc2c1C(=O)c1c(O)c3c(c(O)c1C2=O)C[C@@](O)(C(=O)CO)C[C@@H]3OC1C[C@H](N)[C@H](O)[C@H](C)O1 (stereo partly drawn) [Doxorubicin, (7S,9S)-7-[(4S,5S,6S)-4-amino-5-hydroxy-6-methyloxan-2-yl]oxy-6,9,11-trihydroxy-9-(2-hydroxyacetyl)-4-methoxy-8,10-dihydro-7H-tetracene-5,12-dione; hydrochlorid, reference compound]
[2]; Homo sapiens, HepG2, 1 μM, read-out: % Inhibition ± SD Hep-G2
  inhibition at 1 µM: 30.4 ± 5.3%
[2]; Homo sapiens, HepG2, 10 μM, read-out: % Inhibition ± SD Hep-G2
  inhibition at 10 µM: 28.3 ± 4.8%
[2]; Homo sapiens, HepG2, 30 μM, read-out: % Inhibition ± SD Hep-G2
  inhibition at 30 µM: 64 ± 0.4%
[2]; Homo sapiens, HepG2, 50 μM, read-out: % Inhibition ± SD Hep-G2
  inhibition at 50 µM: 58 ± 2.4%
[2]; Homo sapiens, HepG2, 100 μM, read-out: % Inhibition ± SD Hep-G2
  inhibition at 100 µM: 62.6 ± 0.2%
[2]; Homo sapiens, HepG2, 250 μM, read-out: % Inhibition ± SD Hep-G2
  inhibition at 250 µM: 69.8 ± 10%
[2]; Homo sapiens, HepG2, 500 μM, read-out: % Inhibition ± SD Hep-G2
  inhibition at 500 µM: 87.1 ± 2.2%
[3]; Homo sapiens, THP-1, 1 μM, read-out: % Inhibition ± SD THP-1
  inhibition at 1 µM: 34.2%
[3]; Homo sapiens, THP-1, 10 μM, read-out: % Inhibition ± SD THP-1
  inhibition at 10 µM: 60.2 ± 0.6%
[3]; Homo sapiens, THP-1, 30 μM, read-out: % Inhibition ± SD THP-1
  inhibition at 30 µM: 63.2 ± 0.4%
[3]; Homo sapiens, THP-1, 50 μM, read-out: % Inhibition ± SD THP-1
  inhibition at 50 µM: 64.5 ± 2.4%
[3]; Homo sapiens, THP-1, 100 μM, read-out: % Inhibition ± SD THP-1
  inhibition at 100 µM: 67.3 ± 0.2%
[3]; Homo sapiens, THP-1, 250 μM, read-out: % Inhibition ± SD THP-1
  inhibition at 250 µM: 76.4 ± 10%
[3]; Homo sapiens, THP-1, 500 μM, read-out: % Inhibition ± SD THP-1
  inhibition at 500 µM: 94.3 ± 2.3%

## c1ccc2c(c1)c1ccccc1n2Cc1cn(Cc2ccc(Cn3cc(Cn4c5ccccc5c5ccccc54)nn3)cc2)nn1 [Compound 15, 1,4-Bis ((4-((9H-carbazol-9-yl)methyl)-1H-1,2,3-triazol-1yl)methyl) benzene]
[1]
  antiglycation activity in MGO-BSA model (in words): good activity
  IC50: 333 ± 10 µM
  % inhibition of MGO-BSA glycation: 71%
[4]
  ROS (DCF fluorescence) in MGO-AGEs-treated monocytes: 10.6 RFU

## O=C(Cn1cc(Cn2c3ccccc3c3ccccc32)nn1)c1cccc([N+](=O)[O-])c1 [Compound 11, 2-(4-((9H-Carbazole-9-yl)methyl)-1H-1,2,3-triazole-1-y1)-1-(3-nitrophenyl)ethan-1-one]
[1]
  antiglycation activity in MGO-BSA model (in words): good activity
  IC50: 147 ± 10 µM
  % inhibition of MGO-BSA glycation: 75.7%
[4]
  ROS (DCF fluorescence) in MGO-AGEs-treated monocytes: 9.06 RFU
